Experimental data as given in patent EP3170833B1, “20,23-PIPERIDINYL-5-O-MYCAMINOSYL-TYLONOLIDE POLYMORPHS” (Intervet International B.V., priority 2007, dated 2009).
Values belong to the compound of their own block, whether it stands above or below them.

Tests used:
Format in all cases: physicochemical
[1] = Dynamic vapor sorption (DVS); settings: 25°C; for maximum water uptake: at 95% relative humidity
Description: Dynamic vapor sorption ("DVS") measurements were obtained with a Projekt Messtechnik SPS11-100n water vapor sorption analyzer. The samples were placed into aluminum crucibles on a microbalance, and allowed to equilibrate at 25°C and 50% relative humidity before initiating the following pre-defined humidity program at 25°C: 50-95-0-50% relative humidity, and scanning with a 5% change in relative humidity per hour and with iso-humid equilibration periods at extreme values.

[2] = Thermogravimetry (TG / TG-FTIR): thermal stability; settings: N2 atmosphere, heating rate of 10°C/min
Description: Measurements of thermogravimetry coupled to Fourier transform infrared spectroscopy ("TG-FTIR") were obtained using a Netzsch Thermo-Microbalance TG 209 with a Bruker Vector 22 FT-IR Spectrometer using an aluminum crucible (with micro-hole or open), N2 atmosphere, heating rate of 10°C/min, and temperature range of 25-250°C.
Thermogravimetry ("TG") measurements were obtained with a Perkin Elmer TGS 2 thermogravimetric analyzer using an aluminum crucible (open), N2 atmosphere, heating rate of 10°C/min, and temperature range of 25-500°C.

[3] = Desolvation experiment: drying under vacuum
Description: A weight loss of from about 8.7-10% occurred due to tBME liberation. This weight loss corresponds to 0.8-0.9 tBME molecule per molecule of 20,23-dipiperidinyl-5-O-mycaminosyl-tylonolide, assuming essentially pure 20,23-dipiperidinyl-5-O-mycaminosyl-tylonolide. Almost all the weight loss occurs above 90°C, with a sharp step when the temperature increases to greater than 100°C. Thus, the majority of the weight loss occurs at temperatures greater than the boiling point of tBME.
Example 7. Preparation of the Form III polymorph of 20,23-dipiperidinyl-5-O-mycaminosyl-tylonolide. The Form III polymorph of 20,23-dipiperidinyl-5-O-mycaminosyl-tylonolide was prepared by drying, under vacuum at ambient temperature for 20 hours, the ethyl acetate S1 crystalline solvate of 20,23-dipiperidinyl-5-O-mycaminosyl-tylonolide (50 mg) prepared in accordance with Example 6.
Although this procedure was successfully repeated for forming S2 solvate crystals, additional batches of S2 solvate crystals were formed by dissolving an additional amount of the Form II polymorph of 20,23-dipiperidinyl-5-O-mycaminosyl-tylonolide in tert-butyl methyl ether, seeding S2 solvate crystals from the first batch, and removing the tert-butyl methyl ether. In one experiment, the S2 crystalline solvate was prepared by dissolving the Form II polymorph of 20,23-dipiperidinyl-5-O-mycaminosyl-tylonolide (245.7 mg) in tert-butyl methyl ether (0.5 ml), and slowly evaporating a portion of the solvent at ambient temperature. After no crystals formed, additional tert-butyl methyl ether was added, followed by seeding S2 solvate crystals from the first batch. The solvent was then allowed to evaporate completely. The FT-Raman spectrum for these crystals was approximately identical to the FT-Raman spectrum for the crystals from the first batch. […] The FT-Raman spectra of the crystals after each drying step coincided to the FT-Raman spectrum from the first batch.

[4] = Solubility in tBME; settings: solvent tBME

maximum water uptake [1]: less than 1 % (by weight)
SMILES: CCC1OC(=O)CC(O)C(C)C(OC2OC(C)C(O)C(N(C)C)C2O)C(CCN2CCCCC2)CC(C)C(=O)C=CC(C)=CC1CN1CCCCC1 (stereo not drawn) [Form I polymorph, 20,23-dipiperidinyl-5-O-mycaminosyl-tylonolide]

maximum water uptake [1]: about 2 % (by weight) | temperature at which decomposition began ([2]; TG-FTIR): greater than 220 °C
SMILES: CCC1OC(=O)CC(O)C(C)C(OC2OC(C)C(O)C(N(C)C)C2O)C(CCN2CCCCC2)CC(C)C(=O)C=CC(C)=CC1CN1CCCCC1 (stereo not drawn) [Form II polymorph, 20,23-dipiperidinyl-5-O-mycaminosyl-tylonolide]

water uptake ([1]; between 70 and 85% relative humidity): about 6% | temperature at which decomposition began ([2]; TG): greater than 270 °C
SMILES: CCC1OC(=O)CC(O)C(C)C(OC2OC(C)C(O)C(N(C)C)C2O)C(CCN2CCCCC2)CC(C)C(=O)C=CC(C)=CC1CN1CCCCC1 (stereo not drawn) [Form III polymorph, 20,23-dipiperidinyl-5-O-mycaminosyl-tylonolide]

SMILES: CCC1OC(=O)CC(O)C(C)C(OC2OC(C)C(O)C(N(C)C)C2O)C(CCN2CCCCC2)CC(C)C(=O)C=CC(C)=CC1CN1CCCCC1 (stereo not drawn) [ethyl acetate S1 crystalline solvate, 20,23-dipiperidinyl-5-O-mycaminosyl-tylonolide]
conversion by vacuum drying ([3]; vacuum drying at ambient temperature): readily converted into the Form III polymorph

solubility [4]: 40 to 50 mg/mL | stability ([3]; 60°C at 1 mbar (absolute) for 1 day): exhibits stability | loss of solvent upon drying under vacuum ([3]; at both ambient temperature and 70°C): no loss of solvent was observed
SMILES: CC[C@H]1OC(=O)C[C@@H](O)[C@H](C)[C@@H](O[C@@H]2O[C@H](C)[C@@H](O)[C@H](N(C)C)[C@H]2O)[C@@H](CCN2CCCCC2)C[C@@H](C)C(=O)/C=C/C(C)=C/[C@@H]1CN1CCCCC1 [tBME S2 crystalline solvate, 20,23-dipiperidinyl-5-O-mycaminosyl-tylonolide]
